Reference: publication PMC12736495, “First Insights into the Anti-Inflammatory Potential of Colliguaja odorifera Molina Leaf Extracts and Their Isolated Phenolic Compounds” (Plants, 2025)
pIC50: −log10 of the molar value. Entries after “also recorded” stand apart in the source; their conditions may differ. Where two headings read alike, the source gives them in different places. Each block holds one molecule with its values, some of them ahead of it.

What was measured:
Lipoxygenase = settings: cited from earlier work
[1] = target: T1, lipoxygenase Type I-B LOX A from Glycine max L. (soybean) (15-LOX) (Glycine max, UniProt P08170); assay: Inhibitory LOX activity assay (linoleic acid, absorbance at 234 nm); assay type: biochemical; settings: for pIC50: LOX Inhibition (IC50 µg/mL)
T1 construct: purchased Sigma-Aldrich (Steinheim, Germany)
T1 sequence (P08170 1-839): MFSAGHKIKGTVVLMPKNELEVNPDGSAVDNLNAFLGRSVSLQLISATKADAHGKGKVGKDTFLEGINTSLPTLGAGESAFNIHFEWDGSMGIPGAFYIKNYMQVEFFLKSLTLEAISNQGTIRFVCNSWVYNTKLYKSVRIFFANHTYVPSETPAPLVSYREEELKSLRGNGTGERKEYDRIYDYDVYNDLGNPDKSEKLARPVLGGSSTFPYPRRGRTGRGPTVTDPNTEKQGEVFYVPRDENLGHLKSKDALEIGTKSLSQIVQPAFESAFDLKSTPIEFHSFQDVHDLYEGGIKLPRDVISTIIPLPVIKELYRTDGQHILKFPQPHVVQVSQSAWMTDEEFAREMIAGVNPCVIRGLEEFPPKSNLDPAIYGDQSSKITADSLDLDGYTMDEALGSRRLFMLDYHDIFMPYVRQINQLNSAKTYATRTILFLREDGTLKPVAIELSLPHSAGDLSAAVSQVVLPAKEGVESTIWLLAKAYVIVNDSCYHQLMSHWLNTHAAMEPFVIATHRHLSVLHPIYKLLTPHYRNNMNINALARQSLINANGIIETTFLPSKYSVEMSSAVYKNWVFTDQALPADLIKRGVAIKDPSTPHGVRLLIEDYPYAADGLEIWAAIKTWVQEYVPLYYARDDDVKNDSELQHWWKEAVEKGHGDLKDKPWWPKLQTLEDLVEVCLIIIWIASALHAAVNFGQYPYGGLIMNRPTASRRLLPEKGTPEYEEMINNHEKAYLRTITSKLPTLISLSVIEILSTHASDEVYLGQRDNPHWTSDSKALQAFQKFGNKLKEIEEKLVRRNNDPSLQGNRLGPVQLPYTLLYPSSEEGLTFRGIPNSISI
Experimental: The inhibitory LOX assay was conducted according to the procedure established by Lyckander and Malterud. The lipoxygenase Type I-B LOX A from Glycine max L. (soybean) (CAS: 9029-60-1) (15-LOX) with an optimal pH of 8.0–9.0 and linoleic acid used here, was obtained from Sigma-Aldrich (Steinheim, Germany).
A linoleic acid ethanol solution (268 µM) was prepared, and 50 µL of this solution was used to prepare concentrations ranging from 0.6 to 26 µg/mL for the HA-E sample, and from 0.6 to 12.9 µg/mL for the EA-E and B-E samples. Then the volume for each concentration was adjusted to 1 mL with 200 mM borate buffer (pH 8.75) containing 0.005% Tween 80. The reaction was initiated by adding 1.5 µL of Soybean 1-LOX (948 U), equivalent to 0.054 g/mL. Enzymatic activity was monitored by measuring the increase in absorbance at 234 nm for 4 min at 37 °C. Each enzyme measurement for each dilution was repeated three times. All tests were performed in triplicate. For this purpose, three samples were taken from each extract. For each of them, enzymatic activity was determined as described above. […] The percentage inhibition of enzyme activity was calculated by comparing the absorbance of the samples to that of the blank, using Equation (1), where A0 is the absorbance of the blank, and A1 is the absorbance of the sample.% inhibition = [(A0 − A1)/A0] × 100(1)
The percentage of inhibition was plotted against sample concentration to calculate the IC50 value.

sPLA2 (Type V) = target: T2, sPLA2 (Type V) (Homo sapiens, UniProt P39877); assay: Screening assay for phospholipase A2 inhibitors (Type V), Cayman kit; assay type: biochemical
T2 construct: purchased Cayman Chemical Co. (Ann Arbor, MI, USA)
T2 sequence (P39877 21-138): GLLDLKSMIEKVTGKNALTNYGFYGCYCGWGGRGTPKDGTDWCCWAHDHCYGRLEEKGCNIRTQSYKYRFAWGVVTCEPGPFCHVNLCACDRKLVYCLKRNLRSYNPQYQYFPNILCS
Experimental: The phospholipase A2 inhibitory activity was determined using the phospholipase A2 (sPLA2) inhibitor detection assay kit (Type V). This kit was purchased from Cayman Chemical Co. (Ann Arbor, MI, USA). Briefly, 10 μL of C. odorifera extracts (HA-E, EA-E, B-E, and W-E, separately) were pre-incubated with 25 mM Tris-HCl buffer at pH 7.5, including 10 μL of phospholipase A2. The reaction was initiated by adding 200 μL of a 1.66 mM diheptanoyl thio-PC substrate solution. The plate was then shaken for 30 s and incubated at 25 °C for 15 min. Then, 10 µL of 5,5′-dithiobis(2-nitrobenzoic acid) (DTNB) was added to stop the enzymatic reaction and allow color development. The reaction mixture was stirred on a shaker for one minute, and the absorbance was subsequently measured at 405 nm with a spectrophotometer (METASH, UV-1500B; Shanghai Metash Instrument Co., Shanghai, China). According to the kit instructions, the sPLA2 activity was evaluated with extract concentrations ranging from 27 to 108 μg/mL. Arachidonic thioester phosphatidylcholine was used as the positive control. […] All tests were performed in triplicate.

hyaluronidase = target: T3, hyaluronidase (Bos taurus, UniProt Q2YDK3); assay: Hyaluronidase inhibition assay (turbidimetric kit); assay type: biochemical; settings: sodium hyaluronate substrate, 37 °C, mean ± s.d.
T3 sequence (Q2YDK3 36-553): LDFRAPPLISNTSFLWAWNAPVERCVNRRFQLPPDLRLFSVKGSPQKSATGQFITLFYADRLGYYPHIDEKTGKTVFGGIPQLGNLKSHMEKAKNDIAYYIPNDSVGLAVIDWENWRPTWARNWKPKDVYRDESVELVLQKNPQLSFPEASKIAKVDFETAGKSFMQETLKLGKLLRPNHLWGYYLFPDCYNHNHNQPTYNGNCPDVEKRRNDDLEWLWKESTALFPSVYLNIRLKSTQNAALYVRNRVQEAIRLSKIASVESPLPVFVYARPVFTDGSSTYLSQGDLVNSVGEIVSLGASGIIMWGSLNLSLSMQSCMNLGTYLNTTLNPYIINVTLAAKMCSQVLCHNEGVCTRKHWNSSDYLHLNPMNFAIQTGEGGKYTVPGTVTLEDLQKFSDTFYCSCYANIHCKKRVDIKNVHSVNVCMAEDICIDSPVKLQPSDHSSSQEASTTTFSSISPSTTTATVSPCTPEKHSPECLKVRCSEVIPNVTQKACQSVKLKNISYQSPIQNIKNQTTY
Experimental: The hyaluronidase inhibitory activity of the extracts was assessed using the Hyaluronidase Inhibitor Detection Assay Kit purchased from Sigma-Aldrich (St. Louis, MO, USA), which employs a two-step turbidimetric reaction to measure the amount of hyaluronic acid hydrolyzed by the enzyme, where the decrease in turbidity is proportional to the enzymatic activity of the sample. The assay was conducted according to the manufacturer’s instructions, with slight modifications, using 96-well plates. Briefly, a reaction mixture containing 10 μL of C. odorifera extract (HA-E, EA-E, B-E, and W-E, separately) and 20 μL of the enzyme (at a concentration of 100 U/mL in incubation buffer) was mixed in each well. After a 15 min incubation at 37 °C, a 20 μL substrate solution (0.1% sodium hyaluronate) was added to each well. The plates were incubated at 37 °C for an additional 20 min. Then, non-hydrolyzed […] was precipitated by adding 250 μL of 2.5% cetyltrimethylammonium bromide (CTAB). […] The intensity of complex formation was measured by absorbance at 630 nm in a spectrophotometer (METASH, UV-1500B). […] The percentage of hyaluronidase inhibition was calculated using Equation (2), where AS is the absorbance of the solution with the sample extract, AC is the absorbance of the solution without inhibitor, and AT is the absorbance of the enzyme.Inhibition = (AS − AC)/(AT − AC) × 100(2)

[2] = soybean 15-LOX, linoleic acid substrate, borate buffer pH 8.75, 37 °C, mean ± s.d.
[3] = anti-LOX activity, concentration for 50% inhibition in µM, same LOX IC50 expressed in µM

Structure (SMILES): O=c1cc(-c2ccccc2)oc2cc(O)c(O)c(O)c12 [Baicalein]
Lipoxygenase inhibition IC50 (Lipoxygenase; Euphorbiaceae extract and its control): 22.4 µg/mL
Lipoxygenase inhibition IC50 (Lipoxygenase; extract and its control): 0.15 µg/mL

IC50 ([1]; soybean 15-LOX, linoleic acid substrate, borate buffer pH 8.75, 37 °C, mean ± s.d., read-out: LOX Inhibition (IC50 µg/mL) (converted)): 329 µM
Structure (SMILES): CCOC(=O)c1cc(O)c(O)c(O)c1 [Ethyl gallate]

Structure (SMILES): O=C(O)c1cc(O)c(O)c(O)c1 [Gallic acid]
pIC50 [1, 2]: 5.66
IC50 [1, 3]: 2.2 µM
pIC50 (sPLA2 (Type V)): 4.18

Structure (SMILES): CC(C)Cc1ccc(C(C)C(=O)O)cc1 (centres unmarked) [Ibuprofen]
Lipoxygenase inhibition IC50 (Lipoxygenase; extract and its control): 69.7 µg/mL

Structure (SMILES): COc1ccc2c(c1)c(CC(=O)O)c(C)n2C(=O)c1ccc(Cl)cc1 [Indomethacin]
Lipoxygenase inhibition IC50 (Lipoxygenase; extract and its control): 7.9 µg/mL

Structure (SMILES): COC(=O)c1cc(O)c(O)c(O)c1 [Methyl gallate]
pIC50 [1, 2]: 3.48

Structure (SMILES): O=c1c(O)c(-c2ccc(O)c(O)c2)oc2cc(O)cc(O)c12 [Quercetin, reference compound]
IC50 (sPLA2 (Type V); sPLA2-V, diheptanoyl thio-PC substrate, 25 °C, mean ± s.d., read-out: sPLA2 Inhibition (IC50 µg/mL) (converted)): 77.7 µM

Structure (SMILES): O=C(O)C1=C[C@@H](O)[C@@H](O)[C@H](O)C1 [Shikimic acid]
HA Inhibition (IC50 µg/mL) (hyaluronidase): did not elicit anti-sPLA2-V and anti-hyaluronidase activities
pIC50 [1, 2]: 5.25
IC50 [1, 3]: 5.6 µM
sPLA2 Inhibition (IC50 µg/mL) (sPLA2 (Type V); sPLA2-V, diheptanoyl thio-PC substrate, 25 °C, mean ± s.d.): did not elicit anti-sPLA2-V; also recorded: not active
